# In patent US20080113929A1, “Abasic Oligonucleotide as Carrier Platform for Antigen and Immunostimulatory Agonist and Antagonist” (Coley Pharmaceutical GmbH, priority 2004, published 2008):
# Legend:
# murine TLR9 = target: T1, murine TLR9 (Mus musculus, UniProt Q9EQU3); experiment: TLR9 signaling induction, NFκB-luciferase reporter in HEK 293 cells stably transfected with murine TLR9; assay type: cell-based; conditions: 16 h, HEK 293 murine TLR9 NFκB-luciferase
# T1 construct: expressed in transfected cells; host or cells: HEK 293 cells, stably transfected, also carrying a six-fold NFκB-luciferase reporter plasmid
# T1 sequence (Q9EQU3 26-1032): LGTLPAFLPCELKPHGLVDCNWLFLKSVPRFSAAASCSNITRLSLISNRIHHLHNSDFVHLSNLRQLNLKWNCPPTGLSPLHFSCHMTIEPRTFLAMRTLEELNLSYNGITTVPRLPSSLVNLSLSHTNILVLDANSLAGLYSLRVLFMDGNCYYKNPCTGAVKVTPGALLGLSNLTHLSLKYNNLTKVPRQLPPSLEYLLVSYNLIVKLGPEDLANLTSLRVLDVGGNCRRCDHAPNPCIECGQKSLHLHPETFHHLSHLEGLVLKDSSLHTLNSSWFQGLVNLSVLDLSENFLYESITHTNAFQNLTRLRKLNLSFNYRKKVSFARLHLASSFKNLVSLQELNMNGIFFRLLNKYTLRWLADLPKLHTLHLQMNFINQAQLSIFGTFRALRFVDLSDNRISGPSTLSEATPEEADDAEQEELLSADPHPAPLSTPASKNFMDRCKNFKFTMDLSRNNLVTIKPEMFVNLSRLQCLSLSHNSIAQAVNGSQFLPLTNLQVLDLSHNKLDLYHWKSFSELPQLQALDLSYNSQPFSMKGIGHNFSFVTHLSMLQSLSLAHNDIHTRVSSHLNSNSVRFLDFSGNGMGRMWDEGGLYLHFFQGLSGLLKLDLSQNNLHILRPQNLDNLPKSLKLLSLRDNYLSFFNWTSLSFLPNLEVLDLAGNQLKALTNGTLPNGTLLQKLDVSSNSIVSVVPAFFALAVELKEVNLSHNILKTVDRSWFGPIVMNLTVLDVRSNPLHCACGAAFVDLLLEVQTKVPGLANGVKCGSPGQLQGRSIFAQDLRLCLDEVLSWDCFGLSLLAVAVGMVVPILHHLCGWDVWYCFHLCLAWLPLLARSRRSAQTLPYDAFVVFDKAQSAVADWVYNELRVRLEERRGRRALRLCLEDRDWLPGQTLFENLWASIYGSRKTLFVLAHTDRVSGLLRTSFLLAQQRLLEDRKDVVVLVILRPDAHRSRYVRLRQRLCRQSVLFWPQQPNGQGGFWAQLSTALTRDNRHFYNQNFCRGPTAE
# Method: FIG. 2 is a graph depicting fold induction of TLR9 signaling in vitro, as measured using 293 cells stably transformed with murine TLR9 and a NF-κB-luciferase reporter construct, following 16 hour incubation with indicated concentrations of hexamer CpG motif GACGTT alone (20321), CpG motif GACGTT in the context of a 20-mer CpG-ODN(ODN 5890; SEQ ID NO:5), or CpG motif GACGTT in the context of flanking abasic sequences in 20-mer 20307 (poly-D) or in 20-mer 20566 (poly-C3 spacer). EC50 values are shown in the graph legend.
# Following published methods, HEK 293 cells were stably transfected with a murine TLR9 expression vector and a six-fold NFκB-luciferase reporter plasmid. Cells were plated on 96-well plates at 1.5×10^4 cells/well and allowed to attach overnight. The cells were then treated for sixteen hours with individual test compounds listed below at concentrations ranging between 10^−9 M and 10^−5 M.
# Test agents were as follows: ODN 20321 (GACGTT); ODN 5890 (SEQ ID NO:5); 20307 ([…], where each D represents an abasic deoxyribonucleotide unit); and 20566 (JJJJJGACGTTJJJJJJJJJ, where each J represents a C3 spacer derived from propane-1,3-diol).
# Each data point was done in duplicate. After 16 h stimulation the supernatant was removed and the cells were treated with lysis buffer and stored at −80° C. until luciferase measurement. Values are given as fold NFκB activation compared with non-stimulated cells.
# [1] = test system: RAW 264.7 murine macrophage cell line; experiment: In vitro uptake of Cy3-labeled oligomers by RAW 264.7 cells (FACS mean fluorescence); assay type: cell-based; conditions: Cy3-labeled 20-mer, 0.5 to 5.0 μM, 1 hr at 37° C.
# Method: FIG. 1 is a bar graph depicting uptake by RAW 264.7 cells of Cy3-labeled 20-mer abasic oligonucleotides (poly-D or poly-C3) and of 20-mer ODN 5890 (SEQ ID NO:5). No data is shown for poly-C3 at 4.0 or 5.0 μM.
# The 20-mer ODN 5890 ([…]; SEQ ID NO:5), a 20-mer poly-abasic (i.e., poly-D) or a 20-mer poly-C3 were synthesized with a fluorescence tag Cy3. The murine macrophage cell line, RAW 264.7 (American Type Culture Collection, Manassas, Va.), was incubated with various concentrations of test oligomer (0.5 to 5.0 μM) for 1 hr at 37° C. The cells were then washed and FACS analyzed for oligomer uptake by monitoring mean fluorescence. […] No data is shown for poly-C3 at concentrations of 4.0 or 5.0 μM.
Sequence,"TLR9 signaling compared with hexamer CpG motif alone (20321), in words (murine TLR9)",oligomer uptake (comparison in words) [1]
DDDDDGACGTTDDDDDDDDD [compound 20307],induced significantly more TLR9 signaling,
JJJJJGACGTTJJJJJJJJJ [compound 20566],induced significantly more TLR9 signaling,
"TCCATGACGTTTTTGATGTT (Cy3 fluorescent tag attached, position not given here) [ODN 5890, Cy3-tagged in the uptake test]",induced significantly more TLR9 signaling,up taken to a greater extent than either abasic oligonucleotide
